Legend:
[1] = molecular target: T1, Human Melanocortin (MC4) (Homo sapiens, UniProt P32245); assay: Radioligand binding, human melanocortin MC4 membranes, FlashPlate, [125I]-NDP-αMSH; details: compound at 10 μM, [125I]-NDP-αMSH
T1 construct: purchased Perkin Elmer Biosignal
In short: (§1)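 Cloned human receptor membranes were coated onto FlashPlate wells and incubated with radioligand and compound (added from a 0.5 mM DMSO daughter plate) for 1 hour at room temperature in the dark. Scintillation counting gave percent inhibition, with DMSO defining total and reference ligand defining non-specific binding.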

[2] = molecular target: T2, Human opioid (ORL1) (Homo sapiens, UniProt P41146); assay: Radioligand binding, human opioid ORL1 membranes, FlashPlate, [125I]-Nociceptin; details: compound at 10 μM, [125I]-Nociceptin
T2 construct: purchased Perkin Elmer Biosignal
In short: as §1

[3] = molecular target: T3, Human melanocortin (MC5) (Homo sapiens, UniProt P33032); assay: Radioligand binding, human melanocortin MC5 membranes, FlashPlate, [125I]-NDP-αMSH; details: compound at 10 μM; [125I]-NDP-αMSH
T3 construct: purchased Perkin Elmer Biosignal
In short: as §1

[4] = molecular target: T4, Human melanin-concentrating hormone (MCH1) (Homo sapiens, UniProt Q99705); assay: Radioligand binding, human melanin-concentrating hormone MCH1 membranes, FlashPlate, [125I]-S36057; details: compound at 10 μM, [125I]-S36057
T4 construct: purchased Perkin Elmer Biosignal
In short: as §1

[5] = molecular target: T5, Human κ-Opioid (KOP) (Homo sapiens, UniProt P41145); assay: Radioligand binding, human κ-opioid (KOP) membranes, filtration, [3H]-Diprenorphine; details: compound at 10 μM, [3H]-Diprenorphine
T5 construct: purchased Perkin Elmer Biosignal
In short: (§2)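 Filtration binding on cloned human receptor membranes (1 Unit/well), [125I]-Substance P for NK1 and [3H]-Diprenorphine for KOP, 1 h at room temperature. Filters PEI-presoaked, washed with cold 50 mM Tris-HCl pH 7.4, counted by scintillation; percent inhibition calculated, reference ligand defining non-specific binding.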

[6] = molecular target: T6, Mouse urotensin (mUR2) (Mus musculus, UniProt Q8VIH9); assay: Radioligand binding, mouse urotensin mUR2 membranes, FlashPlate, [125I]-Urotensin II; details: compound at 10 μM; [125I]-Urotensin II
T6 construct: purchased Perkin Elmer Biosignal
T6 sequence (Q8VIH9 1-385): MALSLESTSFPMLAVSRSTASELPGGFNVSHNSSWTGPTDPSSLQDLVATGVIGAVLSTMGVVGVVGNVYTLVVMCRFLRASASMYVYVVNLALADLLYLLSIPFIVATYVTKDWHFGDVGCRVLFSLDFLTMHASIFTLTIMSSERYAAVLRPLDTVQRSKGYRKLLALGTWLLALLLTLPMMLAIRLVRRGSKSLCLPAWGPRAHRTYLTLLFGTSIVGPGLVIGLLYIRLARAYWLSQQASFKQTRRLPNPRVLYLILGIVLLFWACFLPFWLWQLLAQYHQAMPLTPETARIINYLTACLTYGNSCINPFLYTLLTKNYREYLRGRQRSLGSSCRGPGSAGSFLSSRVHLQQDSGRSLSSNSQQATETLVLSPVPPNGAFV
In short: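 Cloned mouse urotensin (mUR2) receptor membranes from Perkin Elmer Biosignal were immobilized in FlashPlate microplates using a proprietary coating. Each well got 19.5 μl buffer, then 0.5 μl of DMSO, reference ligand, or compound. Adding 5 μl of [125I]-Urotensin II, diluted to 5× final concentration in binding buffer, started binding. Plates were sealed with TopSeal-A and incubated 1 hour at room temperature in the dark. Wells were counted for 30 seconds each on a TopCount after a 60-second delay, and percentage inhibition was calculated.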

[7] = molecular target: T7, Human neuropeptide Y (NPY-Y1) (Homo sapiens, UniProt P25929); assay: Radioligand binding, human neuropeptide Y NPY-Y1 membranes, FlashPlate, [125I]-PYY; details: compound at 10 μM; [125I]-PYY
T7 construct: purchased Perkin Elmer Biosignal
T7 sequence (P25929 1-384): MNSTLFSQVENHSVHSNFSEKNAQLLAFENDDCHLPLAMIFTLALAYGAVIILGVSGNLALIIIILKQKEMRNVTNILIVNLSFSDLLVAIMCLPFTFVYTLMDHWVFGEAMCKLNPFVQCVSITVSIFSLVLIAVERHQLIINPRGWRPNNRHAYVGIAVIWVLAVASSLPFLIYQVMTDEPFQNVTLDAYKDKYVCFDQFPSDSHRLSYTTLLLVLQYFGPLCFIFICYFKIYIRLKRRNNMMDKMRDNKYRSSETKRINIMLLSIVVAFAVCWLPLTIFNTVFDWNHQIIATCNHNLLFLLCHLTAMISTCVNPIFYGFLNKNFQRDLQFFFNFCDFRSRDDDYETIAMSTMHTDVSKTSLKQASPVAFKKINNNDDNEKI
In short: as §1

[8] = molecular target: T8, Human Melanocortin (MC3) (Homo sapiens, UniProt P41968); assay: Radioligand binding, human melanocortin MC3 membranes, FlashPlate, [125I]-NDP-αMSH; details: compound at 10 μM, [125I]-NDP-αMSH
T8 construct: purchased Perkin Elmer Biosignal
In short: as §1

[9] = molecular target: T9, Human μ-opioid (MOP) (Homo sapiens, UniProt P35372); assay: Radioligand binding, human μ-opioid (MOP) membranes, FlashPlate, [3H]-Naloxone; details: compound at 10 μM; [3H]-Naloxone
T9 construct: purchased Perkin Elmer Biosignal
In short: as §1

[10] = molecular target: T10, Human δ-opioid (DOP) (Homo sapiens, UniProt P41143); assay: Radioligand binding, human δ-opioid (DOP) membranes, FlashPlate, [3H]-Bremazocine; details: compound at 10 μM; [3H]-Bremazocine
T10 construct: purchased Perkin Elmer Biosignal
In short: as §1

[11] = molecular target: T11, Human neurokinin (NK1) (Homo sapiens, UniProt P25103); assay: Radioligand binding, human neurokinin NK1 membranes, filtration, [125I]-Substance P; details: compound at 10 μM; [125I]-Substance P
T11 construct: purchased Perkin Elmer Biosignal
In short: as §2

T1 sequence (P32245 whole entry): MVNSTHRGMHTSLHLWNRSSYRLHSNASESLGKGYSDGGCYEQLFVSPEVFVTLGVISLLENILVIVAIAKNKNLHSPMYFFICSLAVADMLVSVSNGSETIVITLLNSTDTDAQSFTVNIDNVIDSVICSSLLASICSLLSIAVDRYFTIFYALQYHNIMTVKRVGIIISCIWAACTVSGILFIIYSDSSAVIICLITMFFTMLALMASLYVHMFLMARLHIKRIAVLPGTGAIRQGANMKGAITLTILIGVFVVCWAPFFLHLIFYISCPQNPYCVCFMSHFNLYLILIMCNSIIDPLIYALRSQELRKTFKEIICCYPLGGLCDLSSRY
T8 sequence (P41968 whole entry): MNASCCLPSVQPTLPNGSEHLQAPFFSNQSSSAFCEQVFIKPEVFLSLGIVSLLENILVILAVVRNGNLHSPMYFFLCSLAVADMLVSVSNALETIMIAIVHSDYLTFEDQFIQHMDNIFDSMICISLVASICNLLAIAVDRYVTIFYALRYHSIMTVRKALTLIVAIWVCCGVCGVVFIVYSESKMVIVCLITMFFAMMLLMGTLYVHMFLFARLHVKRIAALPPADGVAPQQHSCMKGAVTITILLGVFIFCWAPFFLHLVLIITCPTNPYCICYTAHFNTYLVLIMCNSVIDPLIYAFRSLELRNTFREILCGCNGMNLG
T2 sequence (P41146 whole entry): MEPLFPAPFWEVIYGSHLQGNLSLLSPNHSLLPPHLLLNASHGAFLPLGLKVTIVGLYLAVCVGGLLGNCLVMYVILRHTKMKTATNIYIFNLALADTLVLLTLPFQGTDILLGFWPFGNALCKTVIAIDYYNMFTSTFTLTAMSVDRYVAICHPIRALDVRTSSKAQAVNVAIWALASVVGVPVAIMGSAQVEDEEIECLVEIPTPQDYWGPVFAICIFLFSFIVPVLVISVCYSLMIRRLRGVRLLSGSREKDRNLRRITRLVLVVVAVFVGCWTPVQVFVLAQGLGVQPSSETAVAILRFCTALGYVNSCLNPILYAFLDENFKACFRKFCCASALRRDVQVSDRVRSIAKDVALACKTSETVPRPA
T11 sequence (P25103 whole entry): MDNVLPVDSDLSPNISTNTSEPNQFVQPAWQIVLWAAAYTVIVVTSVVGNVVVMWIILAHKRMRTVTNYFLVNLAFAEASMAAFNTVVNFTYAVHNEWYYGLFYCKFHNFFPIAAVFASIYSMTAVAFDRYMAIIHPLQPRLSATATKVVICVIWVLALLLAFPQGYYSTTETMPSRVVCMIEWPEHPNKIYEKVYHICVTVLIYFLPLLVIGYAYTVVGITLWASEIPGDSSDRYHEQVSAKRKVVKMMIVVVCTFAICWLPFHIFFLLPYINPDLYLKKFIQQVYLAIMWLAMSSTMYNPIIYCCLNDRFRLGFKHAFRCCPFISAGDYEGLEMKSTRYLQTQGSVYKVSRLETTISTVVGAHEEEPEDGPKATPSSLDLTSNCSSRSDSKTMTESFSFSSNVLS
T9 sequence (P35372 whole entry): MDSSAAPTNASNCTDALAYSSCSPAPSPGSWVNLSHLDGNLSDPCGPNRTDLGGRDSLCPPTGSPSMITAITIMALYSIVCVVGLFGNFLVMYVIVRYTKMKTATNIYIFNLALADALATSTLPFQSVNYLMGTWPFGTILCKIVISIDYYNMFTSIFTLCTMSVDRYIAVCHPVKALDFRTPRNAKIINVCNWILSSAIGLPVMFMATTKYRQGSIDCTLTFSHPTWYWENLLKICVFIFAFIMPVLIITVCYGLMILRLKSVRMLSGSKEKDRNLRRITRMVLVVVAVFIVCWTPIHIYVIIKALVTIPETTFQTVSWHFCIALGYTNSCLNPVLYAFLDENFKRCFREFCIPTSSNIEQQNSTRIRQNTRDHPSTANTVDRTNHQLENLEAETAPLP
T3 sequence (P33032 whole entry): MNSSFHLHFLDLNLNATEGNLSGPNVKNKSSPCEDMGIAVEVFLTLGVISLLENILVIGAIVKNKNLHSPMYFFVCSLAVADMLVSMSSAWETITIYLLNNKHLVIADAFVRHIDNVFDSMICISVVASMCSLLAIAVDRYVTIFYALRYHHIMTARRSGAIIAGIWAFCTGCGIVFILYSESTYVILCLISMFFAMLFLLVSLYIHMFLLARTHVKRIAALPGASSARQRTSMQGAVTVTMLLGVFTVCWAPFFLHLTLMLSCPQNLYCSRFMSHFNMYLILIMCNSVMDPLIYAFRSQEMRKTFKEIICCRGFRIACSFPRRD
T10 sequence (P41143 whole entry): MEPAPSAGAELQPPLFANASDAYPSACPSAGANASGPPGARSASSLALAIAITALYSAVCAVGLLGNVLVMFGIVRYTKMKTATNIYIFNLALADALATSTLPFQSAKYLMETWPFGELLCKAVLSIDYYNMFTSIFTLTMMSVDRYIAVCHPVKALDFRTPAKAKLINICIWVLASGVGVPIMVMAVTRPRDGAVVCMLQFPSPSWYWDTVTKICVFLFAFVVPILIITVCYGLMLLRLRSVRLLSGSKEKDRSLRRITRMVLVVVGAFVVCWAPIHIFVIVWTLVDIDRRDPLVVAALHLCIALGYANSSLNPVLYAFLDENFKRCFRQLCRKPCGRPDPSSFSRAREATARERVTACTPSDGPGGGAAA
T5 sequence (P41145 whole entry): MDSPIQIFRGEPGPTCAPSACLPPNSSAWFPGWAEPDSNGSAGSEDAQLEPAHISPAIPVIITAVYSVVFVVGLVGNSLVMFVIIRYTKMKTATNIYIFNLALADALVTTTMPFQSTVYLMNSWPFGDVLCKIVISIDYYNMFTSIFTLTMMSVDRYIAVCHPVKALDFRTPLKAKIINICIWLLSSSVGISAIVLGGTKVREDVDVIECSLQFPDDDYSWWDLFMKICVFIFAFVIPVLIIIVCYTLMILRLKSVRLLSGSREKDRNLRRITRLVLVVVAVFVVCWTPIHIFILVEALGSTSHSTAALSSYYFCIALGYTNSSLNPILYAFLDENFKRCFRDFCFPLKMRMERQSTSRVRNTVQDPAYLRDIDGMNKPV
T4 sequence (Q99705 whole entry): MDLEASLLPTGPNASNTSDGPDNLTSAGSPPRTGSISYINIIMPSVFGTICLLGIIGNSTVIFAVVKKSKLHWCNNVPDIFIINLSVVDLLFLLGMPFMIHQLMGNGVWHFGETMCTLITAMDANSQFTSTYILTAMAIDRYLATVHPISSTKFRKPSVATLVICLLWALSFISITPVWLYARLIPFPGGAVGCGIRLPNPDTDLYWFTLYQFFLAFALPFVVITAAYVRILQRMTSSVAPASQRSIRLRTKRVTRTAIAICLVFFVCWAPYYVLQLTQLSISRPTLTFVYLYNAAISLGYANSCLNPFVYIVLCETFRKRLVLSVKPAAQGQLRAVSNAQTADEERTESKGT

Compound	A4: inhibition of radioligand binding, human melanocortin (MC4) ([1]; 10 µM)	A10: inhibition of radioligand binding, human opioid (ORL1) [2]	A5: inhibition of radioligand binding, human melanocortin (MC5) [3]	A6: inhibition of radioligand binding, human melanin-concentrating hormone (MCH1) [4]	A11: inhibition of radioligand binding, mouse urotensin (mUR2) [6]	A9: inhibition of radioligand binding, human neuropeptide Y (NPY-Y1) [7]	A3: inhibition of radioligand binding, human melanocortin (MC3) ([8]; 10 µM)	A7: inhibition of radioligand binding, human μ-opioid (MOP) [9]	A1: inhibition of radioligand binding, human δ-opioid (DOP) [10]	A8: inhibition of radioligand binding, human neurokinin (NK1) [11]	A2: inhibition of radioligand binding, human κ-opioid (KOP) [5]	A3: inhibition of radioligand binding, human melanocortin (MC3) [8]	A4 radioligand binding, percentage inhibition [1]	A10 radioligand binding, percentage inhibition [2]	A5 radioligand binding, percentage inhibition [3]	A6 radioligand binding, percentage inhibition [4]	A2 radioligand binding, percentage inhibition [5]	A11 radioligand binding, percentage inhibition [6]	A9 radioligand binding, percentage inhibition [7]	A3 radioligand binding, percentage inhibition [8]	also measured
N=C(N)NCCC(=O)N[C@H]1C(OCc2ccc(Cl)cc2)O[C@H](COCc2ccccc2)[C@@H](O)[C@@H]1OCc1ccc(Cl)cc1 (stereo partly drawn) [compound 525]	+ (“+” indicates greater than 50% inhibition at 10 μM)	− (“−” indicates less than 50% inhibition at 10 μM)	+ (“+” indicates greater than 50% inhibition at 10 μM)	+ (“+” indicates greater than 50% inhibition at 10 μM)	− (“−” indicates less than 50% inhibition at 10 μM)	− (“−” indicates less than 50% inhibition at 10 μM)	+ (“+” indicates greater than 50% inhibition at 10 μM)	− (“−” indicates less than 50% inhibition at 10 μM)	− (“−” indicates less than 50% inhibition at 10 μM)	+ (“+” indicates greater than 50% inhibition at 10 μM)											A2: inhibition of radioligand binding, human κ-opioid (KOP) ([5]; 10 µM): + (“+” indicates greater than 50% inhibition at 10 μM)
N=C(N)NCCC(=O)N[C@H]1C(OCc2ccc(Cl)cc2)O[C@H](COCc2ccccc2)[C@@H](O)[C@@H]1OCc1ccc2ccccc2c1 (stereo partly drawn) [compound 530]		+ (“+” indicates greater than 50% inhibition at 10 μM)	+ (“+” indicates greater than 50% inhibition at 10 μM)	+ (“+” indicates greater than 50% inhibition at 10 μM)	− (“−” indicates less than 50% inhibition at 10 μM)	− (“−” indicates less than 50% inhibition at 10 μM)		+ (“+” indicates greater than 50% inhibition at 10 μM)	− (“−” indicates less than 50% inhibition at 10 μM)	+ (“+” indicates greater than 50% inhibition at 10 μM)	+ (“+” indicates greater than 50% inhibition at 10 μM)	+ (“+” indicates greater than 50% inhibition at 10 μM)									A4: inhibition of radioligand binding, human melanocortin (MC4) [1]: + (“+” indicates greater than 50% inhibition at 10 μM)
COC[C@H]1OC(OCc2ccc(Cl)cc2)[C@H](NC(=O)CCNC(=N)N)[C@@H](OCc2cccc(O)c2)[C@@H]1O (stereo partly drawn) [compound 138]													− (“−” indicates less than 50% inhibition at 10 μM)	− (“−” indicates less than 50% inhibition at 10 μM)	− (“−” indicates less than 50% inhibition at 10 μM)	− (“−” indicates less than 50% inhibition at 10 μM)	− (“−” indicates less than 50% inhibition at 10 μM)	− (“−” indicates less than 50% inhibition at 10 μM)	− (“−” indicates less than 50% inhibition at 10 μM)	− (“−” indicates less than 50% inhibition at 10 μM)	A7 radioligand binding, percentage inhibition [9]: + (“+” indicates greater than 50% inhibition at 10 μM); A1 radioligand binding, percentage inhibition [10]: + (“+” indicates greater than 50% inhibition at 10 μM); A8 radioligand binding, percentage inhibition [11]: − (“−” indicates less than 50% inhibition at 10 μM)
CO[C@H]1[C@H](O)[C@@H](COCc2ccc3ccccc3c2)OC(OCCNC(=N)N)[C@@H]1NC(=O)c1ccccc1 (stereo partly drawn) [compound 124]													− (“−” indicates less than 50% inhibition at 10 μM)	− (“−” indicates less than 50% inhibition at 10 μM)	+ (“+” indicates greater than 50% inhibition at 10 μM)	− (“−” indicates less than 50% inhibition at 10 μM)	− (“−” indicates less than 50% inhibition at 10 μM)	− (“−” indicates less than 50% inhibition at 10 μM)	− (“−” indicates less than 50% inhibition at 10 μM)	− (“−” indicates less than 50% inhibition at 10 μM)	A7 radioligand binding, percentage inhibition [9]: − (“−” indicates less than 50% inhibition at 10 μM); A1 radioligand binding, percentage inhibition [10]: − (“−” indicates less than 50% inhibition at 10 μM); A8 radioligand binding, percentage inhibition [11]: + (“+” indicates greater than 50% inhibition at 10 μM)
NCCCC(=O)NC1C(OCc2ccc(Cl)cc2)OC(COCc2ccccc2)C(O)C1OCc1ccc2ccccc2c1 (single isomer, unassigned) [compound 498]	+ (“+” indicates greater than 50% inhibition at 10 μM)		+ (“+” indicates greater than 50% inhibition at 10 μM)	− (“−” indicates less than 50% inhibition at 10 μM)	− (“−” indicates less than 50% inhibition at 10 μM)	− (“−” indicates less than 50% inhibition at 10 μM)		− (“−” indicates less than 50% inhibition at 10 μM)	− (“−” indicates less than 50% inhibition at 10 μM)	+ (“+” indicates greater than 50% inhibition at 10 μM)	− (“−” indicates less than 50% inhibition at 10 μM)	− (“−” indicates less than 50% inhibition at 10 μM)									A10: inhibition of radioligand binding, human opioid (ORL1) ([2]; 10 µM): + (“+” indicates greater than 50% inhibition at 10 μM)
NCCC(=O)NC1C(OCc2ccc(Cl)cc2)OC(COCc2ccc3ccccc3c2)C(O)C1OCc1ccc2ccccc2c1 (single isomer, unassigned) [compound 477]	− (“−” indicates less than 50% inhibition at 10 μM)		+ (“+” indicates greater than 50% inhibition at 10 μM)		− (“−” indicates less than 50% inhibition at 10 μM)	− (“−” indicates less than 50% inhibition at 10 μM)	− (“−” indicates less than 50% inhibition at 10 μM)	− (“−” indicates less than 50% inhibition at 10 μM)	− (“−” indicates less than 50% inhibition at 10 μM)	+ (“+” indicates greater than 50% inhibition at 10 μM)	− (“−” indicates less than 50% inhibition at 10 μM)										A10: inhibition of radioligand binding, human opioid (ORL1) ([2]; 10 µM): + (“+” indicates greater than 50% inhibition at 10 μM); A6: inhibition of radioligand binding, human melanin-concentrating hormone (MCH1) ([4]; 10 µM): − (“−” indicates less than 50% inhibition at 10 μM)

Source: US20080009418A1, “Selective Inhibitors” (Alchemia LTD., priority 2004, published 2008)
